For this assay, the system named is M. tuberculosis H37Rv growth inhibition. Description: M. tuberculosis H37Rv growth inhibitors, H37Rv strain (AID 1626). As to conditions: for IC90: measured here: IC90 against H37Rv; for CC50: measured here: Vero cell cytotoxicity.

The structures appear in SMILES notation.

As to `O=C(Nc1ccc(C2=NCCN2)cc1)c1ccc(Cl)c(C(=O)Nc2ccc(C3=NCCN3)cc2)c1`, the half-inhibitory concentration (IC50) – broadly, the concentration that gives 50% inhibition – is 7.69 µM and the IC90 (in general, the point of the concentration-response curve where the effect stands at 90%) amounted to 16.9 µM.
Turning to `Cc1cc(NC(=O)c2sccc2C)n(-c2nc3ccccc3[nH]2)n1`, the half-inhibitory concentration (IC50) is below 0.391 µM, the IC90 was determined as 18.1 µM and the cytotoxic concentration (CC50) (commonly the concentration that lowers cell viability or growth by half) was 31.2 µM.
In the case of `CCCCOC(=O)c1ccc(NC(=O)C2CCCO2)cc1` (configuration not stated), the IC50 was 14.2 µM and the 90% effect concentration (IC90) was above 100 µM.
`S=c1[nH]cnc2scc(-c3ccc(Br)cc3)c12` displayed a concentration for an effect of 90% (IC90) above 100 µM and a 50% cytotoxic concentration (CC50) of 34.8 µM.
For the compound `Cc1ccc(/C=C/C(=O)C2C(=O)c3ccccc3C2=O)cc1`, the IC50 is 3.39 µM, the IC90 worked out at 5.29 µM and the half-maximal cytotoxic concentration (CC50) is above 40 µM.
In the case of `O=C(CNC1CCCC1)Nc1ccc(N2CCCCCC2)cc1`, the half-inhibitory concentration (IC50) was 8.04 µM, the concentration for an effect of 90% (IC90) came out at 10.2 µM and the half-maximal cytotoxic concentration (CC50) was 37.7 µM.
Consider `CCOc1ccc(NC(=O)c2ccccc2CO)cc1`, for which the half-inhibitory concentration (IC50) was 9.45 µM and the concentration for an effect of 90% (IC90) was above 100 µM.
In the same order, the values of `O=[N+]([O-])c1cc(C=Nc2ccc3ccccc3c2)ccc1Br` are 5.95 µM and above 100 µM.
On to `CCCCOC(=O)Nc1ccc(C(=O)OCCC)cc1`, for which the concentration for half-maximal inhibition (IC50) is 2.34 µM and the concentration for an effect of 90% (IC90) was above 100 µM.
Consider `CCOC(=O)c1c(NC(=O)C2COc3ccccc3O2)sc2c1CC(C)(C)NC2(C)C` (configuration not stated), for which the concentration for half-maximal inhibition (IC50) was 12.6 µM and the concentration for an effect of 90% (IC90) turned out to be 13.7 µM.
On to `Cc1ccccc1OCC(=O)Nc1nc2ccccc2[nH]1`, for which the IC50 is 4.82 µM and the 90% effect concentration (IC90) amounted to 16.2 µM.
For the compound `O=C(CCSc1ccccc1)Nc1nnc(-c2ccccc2)o1`, the concentration for an effect of 90% (IC90) was above 100 µM.
Regarding `CCOc1ccc2ncc(S(=O)(=O)c3ccc(C)cc3)c(N3CCC4(CC3)OCCO4)c2c1`, the IC50 is 28.2 µM, the 90% effect concentration (IC90) is above 100 µM and the CC50 was above 40 µM.
`Cc1ccc(Nc2c(-c3ccccn3)nc3ccc(C)cn23)cc1`: the half-inhibitory concentration (IC50) was 1.43 µM, the concentration for an effect of 90% (IC90) amounted to 1.63 µM and the CC50 was 1.54 µM.
As to `Cc1[nH]n2c(=O)cc(C(C)(C)C)nc2c1-c1ccccc1`, the IC50 was 0.407 µM, the 90% effect concentration (IC90) stood at 2.91 µM and the CC50 is 13.1 µM.
Consider `COc1ccc(C(C[N+](=O)[O-])n2nc(C)cc2C)cc1` (configuration not stated), for which the cytotoxic concentration (CC50) is above 40 µM.
For the compound `CC(C)OC(=O)CSc1ncnc2c1cnn2-c1ccccc1`, the IC50 was 8.75 µM and the concentration for an effect of 90% (IC90) came out at 25.2 µM.
Regarding `O=C1c2cccc3c([N+](=O)[O-])ccc(c23)C(=O)N1c1ccccn1`, the 50% inhibitory concentration (IC50) was 7.34 µM, the 90% effect concentration (IC90) was 10.5 µM and the cytotoxic concentration (CC50) was determined as 12.2 µM.
Regarding `CCOC(=O)C(C)Sc1nnc(NC(=O)c2ccc(C)c([N+](=O)[O-])c2)s1` (configuration not stated), the IC50 is 6.69 µM and the IC90 came to 12.1 µM.
As to `Cn1cnc([N+](=O)[O-])c1S(=O)(=O)c1cccc(Cl)c1`, the IC50 was 10.9 µM, the IC90 was found to be 11.8 µM and the half-maximal cytotoxic concentration (CC50) stood at 18.7 µM.
With `COC(=O)CSc1nc2c(c(-c3ccco3)c1C#N)CCCC2`, the half-maximal inhibitory concentration (IC50) is 3.08 µM and the IC90 turned out to be 3.39 µM.
On to `COc1ccc(NCc2ccc([N+](=O)[O-])s2)cc1`, for which the IC50 was 59.4 µM and the IC90 was above 100 µM.
As to `Cc1ccc2nc(/N=C(\N)NC(=O)NC3CCCCC3)nc(C)c2c1`, the 50% inhibitory concentration (IC50) is 5.92 µM, the IC90 is 6.73 µM and the CC50 amounted to 25.3 µM.
For `O=[N+]([O-])c1ncccc1Oc1nc(-c2cccnc2)nc2ccccc12`, the IC50 is 7.07 µM and the concentration for an effect of 90% (IC90) is above 100 µM.
Consider `CC(C)c1ccc(CNc2nc3nc4c(c(=O)n3[nH]2)CCC4)cc1`, for which the IC50 is 0.464 µM and the concentration for an effect of 90% (IC90) was above 100 µM.
On the same counts, the results for `COc1ccc(N=CC2=C(O)CCCC2=O)cc1` are 45 µM and above 100 µM.
Turning to `CCCC(=O)N1CCN(c2ccc(NC(=O)c3ccc([N+](=O)[O-])o3)cc2)CC1`, the IC50 is 1 µM, the IC90 is 2.22 µM and the CC50 was determined as 3.1 µM.
For the compound `CC1(C)CC(=O)C2=C(C1)OC(N)=C([N+](=O)[O-])C2c1ccc(C#N)s1` (configuration not stated), the IC50 was 10.9 µM and the IC90 was determined as 15.2 µM.
The compound `COc1ccc(N=Cc2c[nH][nH]c2=O)cc1` yielded a 90% effect concentration (IC90) above 100 µM.
As to `Cc1ccc(-c2ccc(/C=C3\SC(N4CCOCC4)=NC3=O)o2)cc1`, the half-maximal inhibitory concentration (IC50) was 23.5 µM, the IC90 is above 100 µM and the cytotoxic concentration (CC50) is above 40 µM.
As to `CSc1ccc(NC(=O)N2CCN(c3nc4ccccc4s3)CC2)cc1`, the half-inhibitory concentration (IC50) was 9.18 µM, the IC90 was above 100 µM and the CC50 is above 40 µM.
On the same counts, the results for `O=C(Nc1ccc(N2CCN(C(=O)c3ccco3)CC2)cc1)C(c1ccccc1)c1ccccc1` are 12 µM, 14.1 µM and above 40 µM.
As to `COc1ccc(N)cc1-n1cnnn1`, the 90% effect concentration (IC90) is above 100 µM.
With `Cc1nccc(-c2ccc(-n3c(C)ccc3C)cc2)n1`, the 90% effect concentration (IC90) was above 100 µM and the CC50 was above 40 µM.
Take `O=C(Nc1nc(-c2ccccn2)cs1)C1CC1`: the IC50 was 3.96 µM, the 90% effect concentration (IC90) is above 100 µM and the CC50 is above 40 µM.
On to `Cn1nc(-c2ccc(Cl)cc2)c2cc(C(=O)N3CCN(c4ccccn4)CC3)sc21`, for which the half-maximal inhibitory concentration (IC50) is 2.49 µM, the 90% effect concentration (IC90) worked out at 4.36 µM and the 50% cytotoxic concentration (CC50) is above 40 µM.
Turning to `CNC(=O)C(=O)Nc1nc(C23CC4CC(CC(C4)C2)C3)cs1`, the IC50 is 62.7 µM and the 90% effect concentration (IC90) is above 100 µM.
Take `Nc1nc2ccccc2n1C(=O)c1ccccc1`: the half-inhibitory concentration (IC50) is 21.9 µM, the IC90 is above 100 µM and the CC50 is above 40 µM.
For `Cc1cc(C)c(N=Cc2c(O)n(-c3nccs3)c(=O)c3ccccc23)c(C)c1`, the IC50 was 13.1 µM and the IC90 turned out to be 71.4 µM.
For `Cc1cc(C)n(C(=O)c2ccc([N+](=O)[O-])cc2[N+](=O)[O-])n1`, the 50% inhibitory concentration (IC50) was 7.05 µM and the concentration for an effect of 90% (IC90) worked out at 12.6 µM.
On the same counts, the results for `COc1ccc(CNC(=O)c2sc3nc4c(c(C(F)(F)F)c3c2N)CCC4)cc1OC` are 12 µM and 18.3 µM.
For `CCOc1ccc(N=CC2=C(O)CC(c3ccco3)CC2=O)cc1` (configuration not stated), the IC50 is 5.31 µM and the IC90 is above 100 µM.
Consider `Cc1nc([N+](=O)[O-])c(Br)n1Cc1ccc(Cl)c(Cl)c1`, for which the 50% inhibitory concentration (IC50) is 4.08 µM, the IC90 is 7.03 µM and the cytotoxic concentration (CC50) worked out at 12.5 µM.
As for `CCCCCn1c(=O)c(C(=O)Nc2nc3ccccc3[nH]2)c(O)c2ccccc21`, the half-maximal inhibitory concentration (IC50) is 0.706 µM, the IC90 came to 0.757 µM and the CC50 worked out at 6.6 µM.
In the same order, the values of `CCCCc1c(C)c(C#N)c2[nH]c3ccccc3n2c1=O` are 23.2 µM, above 100 µM and 22.9 µM.
Consider `COc1cnc(-c2ccccn2)nc1Oc1ccc(F)cc1F`, for which the IC50 was 19.1 µM, the concentration for an effect of 90% (IC90) is above 100 µM and the CC50 was above 40 µM.
`COc1cccc2c1C(=O)c1c(O)c3c(c(O)c1C2=O)C[C@@](O)(C(=O)CO)C[C@@H]3O[C@H]1C[C@H](N)[C@@H](O)[C@H](C)O1`: the concentration for half-maximal inhibition (IC50) is 14.9 µM, the IC90 turned out to be 26.4 µM and the CC50 stood at 7.47 µM.
On to `CCOC(=O)c1cc(-c2csc(-c3ccc(C(F)(F)F)cc3)n2)on1`, for which the concentration for half-maximal inhibition (IC50) was below 0.195 µM and the concentration for an effect of 90% (IC90) turned out to be 3.33 µM.
`COc1ccc(N/C=C/C(=O)c2ccc(Cl)cc2)cc1`: the CC50 was above 40 µM.
`COc1ccc(NC(=O)CCc2nc(-c3ccccc3F)no2)cc1` came in with an IC90 above 100 µM.
For `O=C(CSc1nc2ccc(Nc3nc(N4CCOCC4)nc(N4CCOCC4)n3)cc2s1)NCc1ccco1`, the IC50 is 36.5 µM, the IC90 is above 100 µM and the CC50 is above 40 µM.
`COc1ccc(/C=c2\s/c(=C/C(=O)c3ccc(C)cc3)[nH]c2=O)cc1OC`: the IC50 was 32.6 µM and the concentration for an effect of 90% (IC90) was above 100 µM.
On to `CC(=O)OCCCN1c2ccccc2Nc2nnc(-c3ccccc3)cc21`, for which the 90% effect concentration (IC90) was above 100 µM and the cytotoxic concentration (CC50) was above 40 µM.
With `O=[N+]([O-])c1ccc(-n2nnnc2-c2ccccc2)c([N+](=O)[O-])c1`, the concentration for half-maximal inhibition (IC50) was 5.8 µM, the IC90 was 9.88 µM and the CC50 was determined as 10.7 µM.
Consider `CCOc1ccc(N/C=C\C(=O)c2ccc3c(c2)OCO3)cc1`, for which the IC50 is 4.53 µM and the IC90 was above 100 µM.
`Cn1cc(CN2CCN(c3ccc(Cl)cn3)CC2)c(-c2ccccc2F)n1`: the 90% effect concentration (IC90) is above 100 µM.
Regarding `Cc1cc(C(=O)CCl)c(C)n1Cc1ccco1`, the half-maximal inhibitory concentration (IC50) was 3.34 µM, the 90% effect concentration (IC90) is 8.28 µM and the cytotoxic concentration (CC50) came out at 12.1 µM.
As for `COc1ccc(CNc2nc3nc4c(c(=O)n3[nH]2)CCC4)cc1`, the half-inhibitory concentration (IC50) was 1.09 µM and the concentration for an effect of 90% (IC90) was above 100 µM.
Consider `O=C(CSc1ncn[nH]1)Nc1ccc(Br)cc1F`, for which the IC50 was 29.5 µM, the 90% effect concentration (IC90) is above 100 µM and the cytotoxic concentration (CC50) was above 40 µM.
Regarding `Nc1c(C(=O)NCCc2ccccc2)c2nc3ccccc3nc2n1CCN1CCOCC1`, the IC50 was 18.6 µM, the concentration for an effect of 90% (IC90) is 25.4 µM and the CC50 was determined as 31.4 µM.
On the same counts, the results for `O=C(Nc1nnc(-c2cccs2)o1)c1cccc(C(F)(F)F)c1` are below 0.391 µM, 11.9 µM and 20.6 µM.
Turning to `O=C(/C=C/c1cn(CC(O)CN2CCCCC2)c2ccccc12)c1ccccc1` (configuration not stated), the concentration for half-maximal inhibition (IC50) is 2.94 µM, the IC90 is 3.34 µM and the CC50 stood at 29.5 µM.
In the same order, the values of `Oc1cccc2ccc(/C=C/c3ccc(Br)s3)nc12` are 2.56 µM, above 100 µM and 32.4 µM.
In the same order, the values of `CCOC(=O)COc1ccc2ccccc2c1/C=C/[N+](=O)[O-]` are 3.01 µM, 3.47 µM and 39.2 µM.
In the same order, the values of `O=C(NC(Nc1nc2ccc([N+](=O)[O-])cc2s1)(C(F)(F)F)C(F)(F)F)c1ccccc1Cl` are 2.17 µM, 4.17 µM and 1 µM.
For `COc1ccc(OCC(O)Cn2c(=N)n(CCN3CCCCC3)c3ccccc32)cc1` (configuration not stated), the half-inhibitory concentration (IC50) is 6.22 µM, the IC90 worked out at 6.86 µM and the 50% cytotoxic concentration (CC50) was above 40 µM.

The values above are taken from PubChem BioAssay AID1626 (SRMLSC, 2009).
